# Data: US20210221822A1, “TRICYCLIC DERIVATIVES INHIBITOR, PREPARATION METHOD, AND APPLICATIONS THEREOF” (Jiangsu Hansoh Pharmaceutical Group Co., Ltd., priority 2018, published 2021)
# Like-named read-outs stand apart in the source and are kept apart here.
# Legend:
# [1] = Toxicity test of a 7-day repeatedly intragastric administration in SD rats; assay type: in vivo
# Text: (§1) 1) In the experiment, 112 rats (56 rats/sex) were divided into 14 groups by sex and body weight, wherein 70 rats were used for toxicology study (groups 1 to 7, 5 rats/sex/group) and 42 rats were used for toxicokinetics study (groups 8 to 14, 3 rats/sex/group).
# 2) As the vehicle control group, the animals in groups 1 and 8 were intragastrically administered 20% aqueous SBE-(3-CD (Captisol) solution.
# (§2) 3) The animals in groups 2 and 9, groups 3 and 10, and groups 4 and 11 were intragastrically administered GDC-0077 at 10, 30 and 60 mg/kg, respectively.
# (§3) 4) The animals in groups 5 and 12, groups 6 and 13, and groups 7 and 14 were intragastrically administered the compound of Example 51 at 10, 30 and 60 mg/kg, respectively.
# (§4) 5) The animals were administered once a day for 7 consecutive days (the animals in groups 7 and 14 were administered for 6 consecutive days).
# 6) The administration volume was 10 mL/kg.
# (§5) 7) During the experiment, items such as clinical observation, body weight, food intake, clinicopathological indicators (blood cell count, coagulation function, blood biochemistry), toxicokinetics and the like were studied.
# 8) All animals were euthanized on Day 8 (the animals in groups 7 and 14 were euthanized after administration on Day 6).
# 9) During the experiment, gross anatomy observation was carried out on animals in groups 1 to 7, animals in group 14 and dead animals (including animals in toxicokinetics study), and histopathological examination was carried out on abnormal tissues, gastrointestinal tissues (such as colon and cecum) and immune tissues (such as thymus).
# [2] = Toxicokinetics in the 7-day repeated intragastric administration study in SD rats; assay type: in vivo, Sprague-Dawley (SD) rats; details: Sprague-Dawley, rat, plasma, po, read-out: average system exposure AUC
# Text: Liquid chromatography−mass spectrometry (detector: API4000, electrospray source (ESI) positive ion mode, column: Agilent ZORBAX XDB-C18 (3.5 μm, 2.1×50 mm)), which was used for the biological analysis of plasma sample.
# as §1, §2, §3, §4, §5
# [3] = biological target: T1, PI3Kα (Homo sapiens, UniProt P42336); assay: ADP-Glo lipid kinase assay, PI3Kα kinase activity; assay type: biochemical; details: ADP-Glo; 0.1 nM enzyme, 120 min, 50 μM ATP
# T1 construct: purchased Promega V1721
# Description: (§6) Experimental method: Promega's ADP-Glo lipid kinase assay method (Promega #V9102) was applied in this experiment. Lipid kinase PI3Kα/β/γ/δ catalyzed the generation of ADP from ATP in the presence of the substrate PIP2: 3PS and ATP. The lipid kinase activity was characterized by measuring the ADP content in the reaction, and the half inhibitory concentration IC50 of the compound on inhibiting PI3Kα/β/γ/δ kinase activity was thus obtained.
# (§7) The kinase reaction was carried out in a white 384-well plate (Perkin Elmer #6007299). 2 μL of the compound solution of different concentrations diluted with ddH2O containing 1% DMSO was added to each well. 2 μL of ddH2O containing 1% DMSO was added to the positive control well. 2 μL of 0.1-2 nM PI3K kinase solution diluted with 5× kinase buffer (HEPES 250 mM, MgCl2 15 mM, NaCl 250 mM, BSA 0.05%) was added to each well. 2 μL of 5× kinase buffer was added to the negative control well. 4 μL of 50 μM substrate PIP2: 3PS (Promega #V1701) formulated with 10× Dilution buffer and ddH2O was added to all wells. Finally, 2 μL of […] ATP solution diluted with water was added to start the reaction. After the reaction was carried out at room temperature for 90 to 120 minutes, 10 μL of ADP-Glo Reagent (containing 10 mM MgCl2) was added to each well, and reacted at room temperature for 60 minutes to remove excess ATP in the reaction. 20 μL of Kinase Detection Reagent was added to each well, and reacted at room temperature in the dark for 20 minutes. The chemiluminescence value was measured by the BioTek Synergy H1 microplate reader.
# (§8) The percentage inhibition data of the compound-treated well was calculated through the positive control well (DMSO control well) and negative control well (no kinase added) on the plate {% inhibition rate=100−[(test compound value−negative control value)]/(positive control value−negative control value)×100}. The IC50 value was calculated by fitting the data of different concentrations and corresponding percentage inhibition rates to a four-parameter nonlinear logic formula with GraphPad prism.
# [4] = biological target: T2, PI3Kβ (Homo sapiens, UniProt P42338); assay: ADP-Glo lipid kinase assay, PI3Kβ kinase activity; assay type: biochemical; details: 0.4 nM enzyme, 90 min, 100 μM ATP
# T2 construct: purchased Carna 11-102
# Description: as §6, §7, §8
# [5] = biological target: T3, PI3Kγ (Homo sapiens, UniProt P48736); assay: ADP-Glo lipid kinase assay, PI3Kγ kinase activity; assay type: biochemical; details: 0.4 nM enzyme, 120 min, 50 μM ATP
# T3 construct: purchased Thermofisher PV4786
# Description: as §6, §7, §8
# [6] = biological target: T4, PI3Kδ (Homo sapiens, UniProt O00329); assay: ADP-Glo lipid kinase assay, PI3Kδ kinase activity; assay type: biochemical; details: 0.1 nM enzyme, 90 min, 100 μM ATP
# T4 construct: purchased Carna 11-103
# Description: as §6, §7, §8
# [7] = Pharmacokinetic (PK) assay in mice; assay type: in vivo; details: male, Balb/c, mouse, plasma, po, single intragastric 5 mg/kg; for AUC(0-t): read-out: Area under curve AUC0-t; for AUC(0-inf): read-out: Area under curve AUC0-∞; for half-life: read-out: Half-life t1/2(h) (converted); for MRT: read-out: Mean residence time MRT; for Tmax: read-out: Peak time tmax; for Cmax: read-out: Plasma concentration Cmax
# Description: The pharmacokinetic assay of the preferred compounds of the examples of the present invention in mice was carried out in Balb/c male mice (Shanghai Jiesijie Laboratory Animal Co., LTD). • Administration mode: single intragastric administration. • Administration dose: 5 mg/10 ml/kg (body weight). • Formulation: the compound was dissolved in 0.5% CMC-Na by ultrasound to obtain a clear solution or homogeneous suspension. • Sampling points: 0.5, 1, 2, 4, 6, 8 and 24 hours after administration. • Sample process: • 1) 0.1 mL of blood was taken from the orbit, placed in a K2-EDTA tube, and centrifuged for 5 to 20 minutes at room temperature at 1000 to 3000×g to separate the plasma, which was then stored at −80° C. • 2) 160 uL of acetonitrile was added to 40 uL of plasma sample for precipitation, and then the mixture was centrifuged for 5 to 20 minutes at 500 to 2000×g. • 3) 100 uL of processed supernatant was taken and analyzed by LC/MS/MS assay to determine the concentration of the test compound. • LC-MS/MS assay: • Liquid chromatography condition: Shimadzu LC-20AD pump • Mass spectrometry condition: AB Sciex API 4000 mass spectrometer • Chromatographic column: phenomenex Gemiu 5 μm C18 50×4.6 mm • Mobile phase: solution A was 0.1% aqueous formic acid solution, and solution B was acetonitrile • Flow rate: 0.8 mL/min • Elution time: 0-4 minutes gradient elution • Pharmacokinetics: […]
# The main parameters were calculated using WinNonlin 6.1.
# [8] = SD rats, 10, 30 and 60 mg/kg (low, middle, high dose)
# T4 sequence (O00329 whole entry): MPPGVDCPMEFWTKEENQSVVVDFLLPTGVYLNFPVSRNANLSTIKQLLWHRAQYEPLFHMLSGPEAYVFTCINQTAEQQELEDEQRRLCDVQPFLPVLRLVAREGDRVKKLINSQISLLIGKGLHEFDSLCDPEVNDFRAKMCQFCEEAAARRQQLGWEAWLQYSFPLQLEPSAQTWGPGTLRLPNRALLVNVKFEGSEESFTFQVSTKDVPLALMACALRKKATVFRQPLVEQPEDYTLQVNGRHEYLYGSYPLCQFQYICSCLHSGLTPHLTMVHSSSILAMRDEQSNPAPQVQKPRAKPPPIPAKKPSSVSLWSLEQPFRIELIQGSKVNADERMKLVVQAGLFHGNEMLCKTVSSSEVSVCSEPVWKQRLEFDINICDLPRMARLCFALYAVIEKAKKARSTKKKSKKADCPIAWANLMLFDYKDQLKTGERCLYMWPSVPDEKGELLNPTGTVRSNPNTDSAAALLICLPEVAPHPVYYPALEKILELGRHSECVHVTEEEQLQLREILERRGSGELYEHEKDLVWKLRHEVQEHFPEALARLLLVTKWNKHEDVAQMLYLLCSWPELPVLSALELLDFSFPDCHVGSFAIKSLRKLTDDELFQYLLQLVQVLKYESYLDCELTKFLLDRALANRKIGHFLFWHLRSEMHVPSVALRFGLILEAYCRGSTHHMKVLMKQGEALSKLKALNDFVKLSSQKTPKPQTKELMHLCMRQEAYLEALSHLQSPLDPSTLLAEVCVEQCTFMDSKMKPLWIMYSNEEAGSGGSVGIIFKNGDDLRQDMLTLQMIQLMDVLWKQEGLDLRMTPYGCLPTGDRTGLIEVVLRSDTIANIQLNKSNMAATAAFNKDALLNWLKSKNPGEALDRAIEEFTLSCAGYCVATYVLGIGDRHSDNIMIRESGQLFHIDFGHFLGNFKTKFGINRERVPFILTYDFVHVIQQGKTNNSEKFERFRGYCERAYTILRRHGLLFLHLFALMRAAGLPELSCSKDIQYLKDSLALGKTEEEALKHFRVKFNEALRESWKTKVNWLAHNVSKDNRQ
# T4 sequence (P27986 whole entry partner): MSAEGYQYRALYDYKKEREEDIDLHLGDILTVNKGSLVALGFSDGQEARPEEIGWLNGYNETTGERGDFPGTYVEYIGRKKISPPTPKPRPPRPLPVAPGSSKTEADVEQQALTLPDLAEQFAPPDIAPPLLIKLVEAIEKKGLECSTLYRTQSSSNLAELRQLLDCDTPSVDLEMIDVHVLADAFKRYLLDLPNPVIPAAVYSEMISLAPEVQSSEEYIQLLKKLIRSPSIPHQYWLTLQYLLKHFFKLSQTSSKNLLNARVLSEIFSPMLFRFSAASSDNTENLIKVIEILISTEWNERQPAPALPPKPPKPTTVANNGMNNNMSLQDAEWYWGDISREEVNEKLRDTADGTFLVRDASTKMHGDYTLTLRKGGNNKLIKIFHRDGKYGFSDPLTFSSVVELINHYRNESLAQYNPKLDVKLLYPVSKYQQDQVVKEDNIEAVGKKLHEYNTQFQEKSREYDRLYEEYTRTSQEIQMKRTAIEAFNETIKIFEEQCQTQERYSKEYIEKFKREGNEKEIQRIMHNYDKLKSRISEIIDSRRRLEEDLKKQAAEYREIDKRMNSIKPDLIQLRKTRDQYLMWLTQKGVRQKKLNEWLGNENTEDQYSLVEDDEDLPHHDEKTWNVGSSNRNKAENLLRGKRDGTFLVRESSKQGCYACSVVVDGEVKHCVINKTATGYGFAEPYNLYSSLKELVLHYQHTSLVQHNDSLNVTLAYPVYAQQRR
# T3 sequence (P48736 whole entry): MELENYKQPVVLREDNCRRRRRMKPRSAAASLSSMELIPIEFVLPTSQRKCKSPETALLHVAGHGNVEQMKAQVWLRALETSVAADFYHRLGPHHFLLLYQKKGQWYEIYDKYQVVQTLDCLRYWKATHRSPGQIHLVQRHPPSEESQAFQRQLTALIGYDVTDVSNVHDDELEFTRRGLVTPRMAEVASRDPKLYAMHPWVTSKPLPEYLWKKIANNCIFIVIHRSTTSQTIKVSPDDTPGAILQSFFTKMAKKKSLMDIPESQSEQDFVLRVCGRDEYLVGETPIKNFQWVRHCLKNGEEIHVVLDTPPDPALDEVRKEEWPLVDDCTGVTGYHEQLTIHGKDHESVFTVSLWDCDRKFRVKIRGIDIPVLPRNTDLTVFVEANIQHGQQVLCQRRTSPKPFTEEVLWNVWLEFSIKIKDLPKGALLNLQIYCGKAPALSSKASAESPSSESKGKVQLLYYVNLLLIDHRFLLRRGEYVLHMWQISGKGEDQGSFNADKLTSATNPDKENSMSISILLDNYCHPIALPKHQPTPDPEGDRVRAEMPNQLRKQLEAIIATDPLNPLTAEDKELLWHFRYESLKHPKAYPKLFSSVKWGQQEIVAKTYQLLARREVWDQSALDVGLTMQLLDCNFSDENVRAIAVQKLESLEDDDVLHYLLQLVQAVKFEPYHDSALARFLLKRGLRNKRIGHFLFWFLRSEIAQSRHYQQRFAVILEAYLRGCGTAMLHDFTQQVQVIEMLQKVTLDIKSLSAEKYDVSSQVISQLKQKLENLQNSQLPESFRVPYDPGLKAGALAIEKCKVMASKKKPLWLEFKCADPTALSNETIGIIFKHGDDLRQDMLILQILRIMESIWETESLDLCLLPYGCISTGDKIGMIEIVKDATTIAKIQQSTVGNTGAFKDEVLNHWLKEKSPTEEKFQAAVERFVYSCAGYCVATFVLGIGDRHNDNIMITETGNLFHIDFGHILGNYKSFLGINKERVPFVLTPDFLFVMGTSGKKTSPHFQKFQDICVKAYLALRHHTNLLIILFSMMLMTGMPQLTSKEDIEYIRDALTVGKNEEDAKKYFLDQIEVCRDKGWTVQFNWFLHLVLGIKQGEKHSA
# T1 sequence (P42336 whole entry): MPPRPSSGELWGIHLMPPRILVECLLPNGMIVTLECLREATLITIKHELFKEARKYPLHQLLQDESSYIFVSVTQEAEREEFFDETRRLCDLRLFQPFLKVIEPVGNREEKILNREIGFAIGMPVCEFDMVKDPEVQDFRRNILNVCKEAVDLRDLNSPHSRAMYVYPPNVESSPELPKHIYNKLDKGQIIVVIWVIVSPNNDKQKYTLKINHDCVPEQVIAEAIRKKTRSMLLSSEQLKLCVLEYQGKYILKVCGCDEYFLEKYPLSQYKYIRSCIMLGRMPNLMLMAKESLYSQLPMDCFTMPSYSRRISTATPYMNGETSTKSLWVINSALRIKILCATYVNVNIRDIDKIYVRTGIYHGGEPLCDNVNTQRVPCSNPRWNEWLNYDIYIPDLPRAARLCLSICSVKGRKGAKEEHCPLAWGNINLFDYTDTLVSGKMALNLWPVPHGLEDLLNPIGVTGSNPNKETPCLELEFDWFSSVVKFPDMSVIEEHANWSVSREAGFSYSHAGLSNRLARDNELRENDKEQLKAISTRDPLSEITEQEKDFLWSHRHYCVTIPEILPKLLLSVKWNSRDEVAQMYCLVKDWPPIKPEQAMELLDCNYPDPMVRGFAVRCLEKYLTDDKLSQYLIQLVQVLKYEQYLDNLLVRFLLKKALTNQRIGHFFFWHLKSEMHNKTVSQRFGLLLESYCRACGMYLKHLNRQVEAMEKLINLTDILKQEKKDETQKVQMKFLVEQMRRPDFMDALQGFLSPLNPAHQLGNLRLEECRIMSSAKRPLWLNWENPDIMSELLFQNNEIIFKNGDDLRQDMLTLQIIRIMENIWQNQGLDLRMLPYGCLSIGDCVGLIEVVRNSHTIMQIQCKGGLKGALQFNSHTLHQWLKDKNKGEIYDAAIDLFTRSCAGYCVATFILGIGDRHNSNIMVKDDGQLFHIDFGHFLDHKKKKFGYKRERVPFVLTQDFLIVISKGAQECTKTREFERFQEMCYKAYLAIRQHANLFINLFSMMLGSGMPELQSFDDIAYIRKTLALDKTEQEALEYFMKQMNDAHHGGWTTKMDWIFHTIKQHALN
# T1 sequence (P27986 whole entry partner): as the sequence (P27986 whole entry partner) above
# T2 sequence (P42338 whole entry): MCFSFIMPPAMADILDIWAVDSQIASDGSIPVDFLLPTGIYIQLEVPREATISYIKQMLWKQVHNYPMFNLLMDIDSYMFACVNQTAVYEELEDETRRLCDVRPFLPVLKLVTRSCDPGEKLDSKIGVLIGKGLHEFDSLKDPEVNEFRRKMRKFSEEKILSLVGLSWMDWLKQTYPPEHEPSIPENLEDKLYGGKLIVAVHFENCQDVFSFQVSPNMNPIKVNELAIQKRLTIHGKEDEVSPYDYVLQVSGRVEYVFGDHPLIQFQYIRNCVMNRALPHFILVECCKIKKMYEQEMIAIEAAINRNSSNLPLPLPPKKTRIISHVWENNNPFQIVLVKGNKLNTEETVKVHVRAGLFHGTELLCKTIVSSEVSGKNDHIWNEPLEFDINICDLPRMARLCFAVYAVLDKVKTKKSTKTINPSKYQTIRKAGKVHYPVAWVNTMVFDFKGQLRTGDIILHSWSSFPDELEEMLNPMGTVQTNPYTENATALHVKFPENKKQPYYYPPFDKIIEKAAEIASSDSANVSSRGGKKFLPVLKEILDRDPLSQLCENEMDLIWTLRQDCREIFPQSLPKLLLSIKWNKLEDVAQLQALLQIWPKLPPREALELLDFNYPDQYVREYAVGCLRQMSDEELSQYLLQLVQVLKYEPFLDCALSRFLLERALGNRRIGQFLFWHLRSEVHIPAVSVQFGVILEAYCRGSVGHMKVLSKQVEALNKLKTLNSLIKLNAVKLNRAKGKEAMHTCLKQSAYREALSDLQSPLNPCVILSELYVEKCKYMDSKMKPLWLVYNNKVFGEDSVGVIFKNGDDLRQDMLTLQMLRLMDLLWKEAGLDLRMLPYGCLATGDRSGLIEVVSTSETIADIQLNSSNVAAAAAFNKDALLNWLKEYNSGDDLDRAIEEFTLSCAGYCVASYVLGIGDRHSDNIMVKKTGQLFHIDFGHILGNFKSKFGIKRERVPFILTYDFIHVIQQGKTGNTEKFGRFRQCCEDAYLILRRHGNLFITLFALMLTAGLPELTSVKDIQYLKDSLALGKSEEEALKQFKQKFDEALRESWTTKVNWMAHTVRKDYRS
# T2 sequence (P27986 whole entry partner): as the sequence (P27986 whole entry partner) above
SMILES,IC50 [3] [nM],IC50 [4] [nM],IC50 [5] [nM],IC50 [6] [nM],AUC(0-t) [7] [ng·h/mL],AUC(0-inf) [7] [ng·h/mL],half-life [7] [h],MRT [7] [h],Tmax [7] [h],Cmax [7] [ng/mL],other results
"C[C@H](Nc1ccc2c(c1)OCCn1cc(N3C(=O)OC[C@H]3C(F)F)nc1-2)C(N)=O [GDC-0077, reference compound]",–,–,–,–,–,–,–,–,–,–,"main target organs of the toxicity ([1]; SD rats): gastrointestinal tissues (such as stomach and cecum) and immune tissues (such as thymus); Blood cell counting and coagulation function ([1]; SD rats, 10, 30 and 60 mg/kg): In each dose group, Retic decreased in both male and female animals; Pathology, pathological changes under the microscope ([1]; SD rats, 10, 30 and 60 mg/kg): atrophy of goblet cells in the cecal mucosa, increase in thymic tingible body macrophages, and erosion, bleeding and edema of gastric mucosal; Body weight and food intake [1, 8]: In the middle-dose and high-dose groups, the final body weight of all animals declined, and their food intake also declined during the same period; Clinical observation [1, 8]: In the high-dose group, abnormal symptoms such as arched back, loose stools, perianal contamination and fluffy coat were observed; Near-death/death ([1]; SD rats, dose of 60 mg/kg): near-dead/dead animals were found; lethal dose ([1]; SD rats, intragastric once/day for 7 days): 60 mg/kg; MTD at 7 days ([1]; both sexes, Sprague-Dawley, rat, in vivo, po, SD rats, intragastric once/day for 7 days, read-out: maximum tolerated dose (MTD)): 30 mg/kg; AUC ([2]; 10 mg/kg intragastric once a day, after the last administration, female): 2250 ng·h/mL; AUC ([2]; 10 mg/kg intragastric once a day, after the last administration, male): 845 ng·h/mL; AUC ([2]; 30 mg/kg intragastric once a day, after the last administration, female): 6510 ng·h/mL; AUC ([2]; 30 mg/kg intragastric once a day, after the last administration, male): 3000 ng·h/mL; AUC ([2]; 60 mg/kg intragastric, after the first administration, female): 22800 ng·h/mL; AUC ([2]; 60 mg/kg intragastric, after the first administration, male): 15400 ng·h/mL"
"C[C@H](Nc1ccc2c(c1F)OCCn1cc(N3C(=O)OC[C@H]3C(F)F)nc1-2)C(N)=O [Example 77, (S)-2-((2-((S)-4-(Difluoromethyl)-2-oxooxazolidin-3-yl)-8-fluoro-5,6-dihydrobenzo[f]imidazo[1,2-d][1,4]oxazepin-9-yl)amino)propanamide]",5.2,924,450,306,4090,4120,1.2,1.7,0.5,2300,–
"NC(=O)[C@@H]1CCCN1c1ccc2c(c1)OCCn1cc(N3C(=O)SC[C@H]3C(F)F)nc1-2 [Example 111, (S)-1-(2-((R)-4-(difluoromethyl)-2-oxothiazolidin-3-yl)-5,6-dihydrobenzo[f]imidazo[1,2-d][1,4]oxazepin-9-yl)pyrrolidine-2-carboxamide]",2.9,1230,736,125,1740,1740,2.8,3.9,0.5,466,–
"C[C@H](Nc1ccc2c(c1F)OCCn1cc(N3C(=O)SC[C@H]3C(F)F)nc1-2)C(N)=O [Example 108, (S)-2-((2-((R)-4-(difluoromethyl)-2-oxothiazolidin-3-yl)-8-fluoro-5,6-dihydrobenzo[f]imidazo[1,2-d][1,4]oxazepin-9-yl)amino)propanamide]",2.4,472,247,194,4240,4240,2,3.4,0.5,1230,–
"COC[C@H](Nc1ccc2c(c1)OCCn1cc(N3C(=O)SC[C@H]3C(F)F)nc1-2)C(N)=O [Example 110, (S)-2-((2-((R)-4-(difluoromethyl)-2-oxothiazolidin-3-yl)-5,6-dihydrobenzo[f]imidazo[1,2-d][1,4]oxazepin-9-yl)amino)-3-methoxypropanamide]",1,754,376,139,13700,13700,2.8,3.7,0.5,4020,–
"C[C@@H](C(N)=O)N(C)c1ccc2c(c1)OCCn1cc(N3C(=O)OC[C@H]3C(F)F)nc1-2 [Example 43, (S)-2-((2-((S)-4-(difluoromethyl)-2-oxooxazolidin-3-yl)-5,6-dihydrobenzo[f]imidazo[1,2-d][1,4]oxazepin-9-yl)(methyl)amino)propanamide]",0.86,283,557,25,3440,3500,1,1.8,0.5,2060,–
